Legend:
[1] = test system: HSPB2; experiment: Modulation of HSPB2 gene expression of keratinocytes (real-time qPCR, RQ); assay type: cell-based, human; design: key: relative quantity vs DMSO vehicle control (qPCR); settings: nHEK, 24 h
Procedure: (§1) Neonatal human epidermal keratinocytes (nHEK) were cultivated in an EpiLife® medium (Gibco) including an HKGS kit (Gibco) with 5% CO2 at 37° C. in accordance with the supplier's instructions. The cells were treated for 24 hours, with 0.0005% of the different dicaffeoylquinic acids from above dissolved in DMSO and DMSO alone as the vehicle control. Genomic target expression levels in treated cells were measured using a quantitative Real-Time PCR comparison to vehicle control treatment.
(§2) RNA was isolated using Qiagen's RNeasy® Mini Kit. The total RNA concentrations were measured using Eppendorf's μCuvetteG 1.0 and BioPhotometer, by measuring the absorption at 260 nm. Purity control values such as E260/280 and E260/230 were calculated simultaneously. Reverse transcription was performed using the high-capacity RNA-to-cDNA kit of Applied Biosystems, in accordance with the supplier's instructions. Samples were treated in Biometra's PCR Thermocycler. For fast real-time qPCR, the cDNA was diluted with RNase-free water, and the TaqMan™ Fast Universal PCR Master Mix of Applied Biosystems was used. Quantitative real time PCR was performed using the StepOnePlus fast real-time PCR instrument by Applied Biosystems. Analysis was conducted using the StepOne software and […] (normalised to endogenous control […] expression). For upregulations, RQ values ≥2.5 are considered to be relevant.
(§3) Neonatal human epidermal keratinocytes (nHEK) were cultivated as described in Example 1 and treated for 24 hours with 0.0007% of the different monocaffeoylquinic acids. Afterwards fast real-time qPCR was performed as described in above using a customised gene array.
(§4) Neonatal human epidermal keratinocytes (nHEK) were cultivated as described in Example 1 and treated for 24 hours with 4,5-dicaffeoylquinic acid (CAS number 14534-61-3, Phytolab GmbH & Co. KG) and (±)-α-tocopherol (CAS number 10191-41-0, synonym: Synonym: DL-α-Tocopherol, Vitamin E, Sigma-Aldrich, synthetic) alone and in combination. Afterwards fast real-time qPCR was performed as described in above using a customised gene array.
(§5) [formula] • With • A=RQ value by 4,5-dicaffeoylquinic acid at concentration x • B=RQ value by tocopherol at concentration y • C=RQ value by the combination of 4,5-dicaffeoylquinic acid at concentration x/2 and tocopherol at concentration y/2 • D=Factor for 4,5-dicaffeoylquinic acid=>0.5 (due to half concentration tested in the combination) • E=Factor for tocopherol=>0.5 (due to half concentration tested in the combination) • A SI=1 is obtained for additive activity of the two combined components, whereas a SI <1 proves antagonistic activity (observed efficacy is lower than additive) and SI >1 proves synergistic activity (observed efficacy is higher than additive).
(§6) Neonatal human epidermal keratinocytes (nHEK) were cultivated as described above and treated for 24 hours with yarrow extract of example 3 (Achillea millefolium, freeze-dried fresh press juice of flowering aerials, cultivated in Germany) and (±)-α-tocopherol (CAS number 10191-41-0, synonym: Synonym: DL-α-Tocopherol, Vitamin E, Sigma-Aldrich, synthetic) alone and in two combinations. Afterwards fast real-time qPCR was performed as described in above using a customised gene array.

[2] = test system: HSPB8; experiment: Modulation of HSPB8 gene expression of keratinocytes (real-time qPCR, RQ); assay type: cell-based, human; design: key: RQ: expression relative to DMSO vehicle control (qPCR); settings: nHEK, 24 h
Procedure: as §1, §2, §3
(§7) Neonatal human epidermal keratinocytes (nHEK) were cultivated as described in Example 1 and treated for 24 hours with 0.005% of the extract samples. Afterwards fast real-time qPCR was performed as described in above using a customized gene array.
as §4, §5, §6

[3] = test system: CRYAB; experiment: Modulation of CRYAB gene expression of keratinocytes (real-time qPCR, RQ); assay type: cell-based, human; design: key: relative quantity (RQ) vs DMSO vehicle-treated control; settings: nHEK, 24 h
Procedure: as §1, §2, §3, §7, §4, §5
Neonatal human epidermal keratinocytes (nHEK) were cultivated as described above and treated for 24 hours with 3,5-dicaffeoylquinic acid (CAS number 2450-53-5, Phytolab GmbH & Co. KG) and D-α-tocopherol (CAS number 59-02-9, synonym: (+)-α-tocopherol, Vitamin E, trade name: Copherol® F 1300 C, BTC Europe GmbH) alone and in combination. Afterwards fast real-time qPCR was performed as described in above using a customised gene array.
(§8) Neonatal human epidermal keratinocytes (nHEK) were cultivated as described above and treated for 24 hours with yarrow extract of example 3 (Achillea millefolium, freeze-dried fresh press juice of flowering aerials, cultivated in Germany) and (±)-α-tocopherol (CAS number 10191-41-0, synonym: Synonym: DL-α-Tocopherol, Vitamin E, Sigma-Aldrich, synthetic) alone and in two combinations. Afterwards fast real-time qPCR was performed as described in above using a customised gene array. […]

[4] = test system: CLDN1; experiment: Modulation of CLDN1 gene expression of keratinocytes (real-time qPCR, RQ); assay type: cell-based, human; settings: nHEK, 24 h
Procedure: as §1, §2, §3, §7, §4, §5
(§9) Neonatal human epidermal keratinocytes (nHEK) were cultivated as described in Example 1 and treated for 24 hours with 3,4-dicaffeoylquinic acid (CAS number 57378-72-0, Phytolab GmbH & Co. KG) and (+)-α-tocopherol (CAS number 59-02-9, synonym: Synonym: D-α-tocopherol, Vitamin E, Sigma-Aldrich) alone and in combination. Afterwards fast real-time qPCR was performed as described in above using a customised gene array. For upregulations, RQ values ≥2.5 are considered to be relevant.
as §6

[5] = test system: OCLN; experiment: Modulation of OCLN gene expression of keratinocytes (real-time qPCR, RQ); assay type: cell-based, human; design: key: RQ: expression relative to DMSO vehicle control (qPCR); settings: nHEK, 24 h
Procedure: as §1, §2, §3, §7, §4, §5, §6

[6] = test system: DEFB1; experiment: Modulation of DEFB1 gene expression of keratinocytes (real-time qPCR, RQ); assay type: cell-based, human; design: key: RQ = expression relative to DMSO vehicle control (qPCR); settings: nHEK, 24 h
Procedure: as §1, §2, §3, §4, §5, §6
Neonatal human epidermal keratinocytes (nHEK) were cultivated as described above and treated for 24 hours with yarrow extract of example 3 (Achillea millefolium, freeze-dried fresh press juice of flowering aerials, cultivated in Germany) and (+)-α-tocopherol (CAS number 59-02-9, synonym: Synonym: D-α-tocopherol, Vitamin E, Sigma-Aldrich) alone and in combination. Afterwards fast real-time qPCR was performed as described in above using a customised gene array.

[7] = test system: DSC1; experiment: Modulation of DSC1 gene expression of keratinocytes (real-time qPCR, RQ); assay type: cell-based, human; design: key: RQ: expression relative to DMSO vehicle control; settings: nHEK, 24 h
Procedure: as §1, §2, §3, §7, §4, §5, §9, §8

[8] = test system: DSG1; experiment: Modulation of DSG1 gene expression of keratinocytes (real-time qPCR, RQ); assay type: cell-based, human; design: key: relative quantity vs DMSO vehicle control (qPCR); settings: nHEK, 24 h
Procedure: as §1, §2, §3, §7, §4, §5, §9
Neonatal human epidermal keratinocytes (nHEK) were cultivated as described above and treated for 24 hours with 3,5-dicaffeoylquinic acid (CAS number 2450-53-5, Phytolab GmbH & Co. KG) and D-α-tocopherol (CAS number 59-02-9, synonym: (+)-α-tocopherol, Vitamin E, trade name: Copherol® F 1300 C, BTC Europe GmbH) alone and in combination. Afterwards fast real-time qPCR was performed as described in above using a customised gene array. […]

[9] = test system: Neonatal human epidermal keratinocytes (nHEK); experiment: Modulation of gene expression of keratinocytes, whole gene array (statements in words); assay type: cell-based; settings: 24 h
Procedure: as §1, §2, §3, §7

[10] = 0.003% tocopherol alone, Example 8

Row | SMILES | RQ value HSPB2 ([1]; 0.0005%, Example 1) | RQ value HSPB8 ([2]; 0.0005%, Example 1) | RQ value CRYAB ([3]; 0.0005%, Example 1) | RQ value CLDN1 ([4]; 0.0005%, Example 1) | RQ value OCLN ([5]; 0.0005%, Example 1) | RQ value DEFB1 ([6]; 0.0005%, Example 1) | RQ value DSC1 ([7]; 0.0005%, Example 1) | RQ value DSG1 ([8]; 0.0005%, Example 1) | RQ value HSPB2 ([1]; 0.0007%, Example 2) | RQ value HSPB8 ([2]; 0.0007%, Example 2) | RQ value CRYAB ([3]; 0.0007%, Example 2) | RQ value CLDN1 ([4]; 0.0007%, Example 2) | RQ value OCLN ([5]; 0.0007%, Example 2) | RQ value DEFB1 ([6]; 0.0007%, Example 2) | RQ value DSC1 ([7]; 0.0007%, Example 2) | RQ value DSG1 ([8]; 0.0007%, Example 2) | other results
1 | O=C(/C=C/c1ccc(O)c(O)c1)O[C@@H]1C[C@](OC(=O)/C=C/c2ccc(O)c(O)c2)(C(=O)O)C[C@@H](O)[C@H]1O [1,5-Dicaffeoylquinic acid, 1,5-dicaffeoylquinic acid] | 2.4 | 2.8 | 7.2 | 2.4 | 2.2 | 2.4 | 7.6 | 5.3 | – | – | – | – | – | – | – | – | –
2 | O=C(/C=C/c1ccc(O)c(O)c1)O[C@@H]1[C@H](O)C[C@@](O)(C(=O)O)C[C@H]1OC(=O)/C=C/c1ccc(O)c(O)c1 [3,4-Dicaffeoylquinic acid, 3,4-dicaffeoylquinic acid] | 4.9 | 7.3 | 18.7 | 5.1 | 4.2 | 3.5 | 25.8 | 14.9 | – | – | – | – | – | – | – | – | RQ value CLDN1 ([4]; 0.0006% alone, Example 5): 4.2; RQ value DSC1 ([7]; 0.0006% alone, Example 5): 6.2; RQ value DSG1 ([8]; 0.0006% alone, Example 5): 2.1
3 | O=C(/C=C/c1ccc(O)c(O)c1)O[C@@H]1CC(O)(C(=O)O)C[C@@H](OC(=O)/C=C/c2ccc(O)c(O)c2)C1O (some centres unmarked) [3,5-Dicaffeoylquinic acid, 3,5-dicaffeoylquinic acid] | 6.1 | 6.2 | 16.5 | 4.7 | 3.5 | 3.4 | 20.5 | 12.2 | – | – | – | – | – | – | – | – | RQ value CRYAB ([3]; 0.0002% alone, Example 6): 2.7; RQ value DSG1 ([8]; 0.0002% alone, Example 6): 2.4
4 | O=C(/C=C/c1ccc(O)c(O)c1)O[C@@H]1C[C@](O)(C(=O)O)C[C@@H](O)[C@H]1O [3-caffeoyl-quinic acid, 3-Caffeoylquinic acid] | – | – | – | – | – | – | – | – | 0.8 | 0.8 | 0.9 | 0.8 | 1.0 | 1.1 | 1.0 | 0.7 | –
5 | O=C(/C=C/c1ccc(O)c(O)c1)O[C@H]1[C@H](O)C[C@](O)(C(=O)O)C[C@H]1OC(=O)/C=C/c1ccc(O)c(O)c1 [4,5-Dicaffeoylquinic acid, 4,5-dicaffeoylquinic acid] | 4.3 | 4.2 | 13.8 | 3.5 | 2.4 | 3.2 | 18.1 | 10.6 | – | – | – | – | – | – | – | – | RQ value HSPB2 ([1]; 0.0007% alone, Example 4): 5.7; RQ value HSPB8 ([2]; 0.0007% alone, Example 4): 6.2; RQ value CRYAB ([3]; 0.0007% alone, Example 4): 21.1; RQ value CLDN1 ([4]; 0.0007% alone, Example 4): 2.4; RQ value OCLN ([5]; 0.0007% alone, Example 4): 3.4; RQ value DEFB1 ([6]; 0.0007% alone, Example 4): 4.3; RQ value DSC1 ([7]; 0.0007% alone, Example 4): 25.0; RQ value DSG1 ([8]; 0.0007% alone, Example 4): 11.1
6 | O=C(/C=C/c1ccc(O)c(O)c1)O[C@H]1[C@H](O)C[C@](O)(C(=O)O)C[C@H]1O [4-caffeoyl-quinic acid, 4-caffeoylquinic acid] | – | – | – | – | – | – | – | – | 2.2 | 1.0 | 1.9 | 0.8 | 1.0 | 1.9 | 2.2 | 1.9 | –
7 | O=C(/C=C/c1ccc(O)c(O)c1)O[C@@H]1C[C@@](O)(C(=O)O)C[C@@H](O)[C@@H]1O [5-caffeoyl-quinic acid, 5-caffeoylquinic acid] | – | – | – | – | – | – | – | – | 1.0 | 0.6 | 0.7 | 0.8 | 0.8 | 0.7 | 0.7 | 0.5 | –
8 | Cc1c(C)c2c(c(C)c1O)CC[C@@](C)(CCC[C@H](C)CCC[C@H](C)CCCC(C)C)O2 [(+)-alpha-tocopherol, (+)-α-tocopherol] | – | – | – | – | – | – | – | – | – | – | – | – | – | – | – | – | RQ value CRYAB [3, 10]: 0.7; RQ value CRYAB ([3]; 0.01% alone, Example 6): 0.5; RQ value CLDN1 ([4]; 0.003% alone, Example 5): 0.4; RQ value DEFB1 [6, 10]: 0.8; RQ value DSC1 ([7]; 0.003% alone, Example 5): 0.6; RQ value DSC1 [7, 10]: 0.6; RQ value DSG1 ([8]; 0.003% alone, Example 5): 0.4; RQ value DSG1 [8, 10]: 0.4; RQ value DSG1 ([8]; 0.01% alone, Example 6): 0.7; relevant modulation of the selected genes (RQ ≥2.5) ([9]; tocopherol alone at 0.003%): does not relevantly modulate any of the selected genes; relevant modulation of the selected genes (RQ ≥2.5) ([9]; tocopherol alone at 0.01%): does not relevantly modulate any of the selected genes
